Experimental data: patent publication US4954488A, “Method of treating hyperaldosteronism using 17β-cyclopropylaminoandrostene derivatives” (Merrell Dow Pharmaceuticals Inc., priority 1989, dated 1990)

Target: T1, enzymes in the synthesis of aldosterone (Rattus norvegicus, UniProt P30099)
T1 construct: From these animals, adrenal capsule/glomerulosa homogenates were prepared; from tissue; host or cells: adrenal capsule/glomerulosa homogenate of sodium-deficient young male Sprague-Dawley rats
Assay: Inhibition of aldosterone formation from [3H]-DOC in rat adrenal capsule/glomerulosa homogenates
Format: biochemical, Sprague-Dawley rats
Details: pH 7.4, 25° C.; for IC50: 40 minute preincubation data, 10-minute assay, 1 μM [3H]-DOC, read-out: IC50 (half-maximal inhibition of aldosterone formation); for t50 (t1/2 for enzyme inactivation at infinite inhibitor concentration) / Ki: linear regression of t1/2 vs. 1/[I], Kitz-Wilson plots; for Ki: read-out: Ki for time-dependent inhibition
Description: Young male Sprague-Dawley rats were maintained on a sodium-deficient diet for about two weeks prior to use. From these animals, adrenal capsule/glomerulosa homogenates were prepared (6 mg/ml) in pH 7.4 assay buffer [MgCl2 8.5 mM, CaCl2 2.7 mM, KCl 3.13 mM, NaCl 7.591 mM, TRIS 50 mM and 0.1% triethylamine] and centrifuged 500xg for 10 minutes.
Assays were conducted in 35 ml glass tubes maintained at 25° C. in a Dubnoff shaker with 95% O2 /5% CO2. The tubes contained the following material: 100 μl of an NADPH^+ generating system, 300 μl of adrenal capsular/glomerulosa cytosol, and 50 μl of test compound or buffer (control). After initial preincubation intervals of 20 minutes, the 10-minute assay was started by the addition of 50 μl of tritium-labelled substrate, i.e., 1 μM [^3 H]-DOC. Reactions were quenched by the addition of 5 ml of ethyl acetate and non-radiolabelled steroids were also added. The samples were extracted twice with 5 ml of ethyl acetate and the solvent evaporated under nitrogen at 30°-40° C.
Residues were redissolved in methanol:water (40:60) with 0.1% triethylamine and high performance liquid chromatography was used to separate products on a C18 reverse phase (5μ ODS-Hypersil) column (4.6×250 mm, Shannon) with a 1 ml/min flow rate using an MeOH:H20 gradient (solvent A 10/90:solvent B 90/10).
Substrate remaining and products formed were monitored by UV absorbance at 246 nm and the amount of steroid compound present was quantified by [^3 H] radioactivity. The concentration of compound to produce half-maximal inhibition (IC50) of aldosterone formation from the 40 minute preincubation data was graphically estimated from a linear-log plot of percent inhibition vs. log of the compound concentration. The Ki for time-dependent inhibition and the t1/2 for enzyme inactivation at infinite inhibitor concentration (t50) was determined by the linear regression analyses of t1/2 vs. 1/[I] data of Kitz-Wilson plots. Using this procedure, the following results were observed: […]

Structure (SMILES)	IC50 [nM]	t50 (t1/2 for enzyme inactivation at infinite inhibitor concentration) [min]	Ki [nM]
CN(C1CC1)[C@H]1CC[C@H]2[C@@H]3CC=C4C[C@@H](O)CC[C@]4(C)[C@H]3CC[C@]12C [17β-[N-Methyl(cyclopropylamino)]-androst-5-en-3β-ol]	350	9.0	350
C[C@]12CC[C@H]3[C@@H](CC=C4C[C@@H](O)CC[C@@]43C)[C@@H]1CC[C@@H]2NC1CC1 [17β-(Cyclopropylamino)androst-5-en-3β-ol]	1100	9.7	4850
CN(C1CC1)[C@H]1CC[C@H]2[C@@H]3CCC4=CC(=O)CC[C@]4(C)[C@H]3CC[C@]12C [17β-[N-Methyl(cyclopropylamino)]androst-4-en-3-one]	130	15.4	140
C[C@]12CC[C@H]3[C@@H](CCC4=CC(=O)CC[C@@]43C)[C@@H]1CC[C@@H]2NC1CC1 [17β-(Cyclopropylamino)androst-4-en-3-one]	180	–	–
